Entries after “also recorded” stand apart in the source; their conditions may differ. Like-named read-outs stand apart in the source and are kept apart here.
Assays:
[1] = tested on: 22Rv1-wild type (WT) cells; experiment: CellTiter-Glo cell viability assay in 22Rv1 wild type cells; type: cell-based, human; conditions: Homo sapiens, 22Rv1, Fig. S5F; 22Rv1 WT
Description: Cells were seeded onto 96-well plates in appropriate culture media and allowed to adhere overnight prior to treatment. The next day, a nine-point serial dilution of the compounds was prepared and added to the plates. After treatment, the cells were then incubated for an additional 5 d. On the last day of treatment, the CellTiter-Glo cell viability assay (Promega) was then executed in accordance with the manufacturer’s guidelines. The signal (luminescence) from each well was determined using an Infinite M1000 Pro plate reader (Tecan). Relative viability was determined by dividing the signal from each well by the average of the control condition in each experiment. Finally, the data were analyzed and plotted using GraphPad Prism.

[2] = tested on: SMARCA4, SMARCA2 and PBRM1 in 22Rv1 AUR-2 cells; experiment: Immunoblot of target degradation in 22Rv1 AUR-2 cells; type: cell-based, human; conditions: 4 h, AU-15330 1 µM, AU-24118 0.1 µM
Description: (§1) Lysates were prepared using radioimmunoprecipitation assay buffer (Thermo Fisher) with cOmpleteTM protease inhibitor cocktail tablets (Sigma-Aldrich) added. Total protein for each sample was determined using the DC Protein Assay (Bio-Rad) according to the manufacturer’s instructions. A standardized quantity of protein was resolved using NuPAGE Tris-Acetate Protein Gel (3 to 8%) (Thermo Fisher) or NuPAGE Bis-Tris Protein Gel (4 to 12%) (Thermo Fisher) and probed with primary antibodies as indicated. Following incubation with secondary antibodies conjugated with horseradish peroxidase, membranes were imaged on an Odyssey Fc Imager (LiCOR Biosciences).

[3] = In vivo pharmacokinetics in mice; conditions: plasma; for Cmax: read-out: Cmax/C0
Excerpt: All experimental procedures relating to animal care, handling, and treatment were approved by the Institutional Animal Ethics Committee of Aurigene Oncology Ltd. based on the Committee for Control and Supervision of Experiments on Animals guidelines. Animals were included for experimentation after 1 wk of acclimatization to standard laboratory conditions and were provided with reverse osmosis-treated water and rodent pellet diet ad libitum.
The pharmacokinetic profile of AU-24118 was studied in both mice and rats. For assessment of oral bioavailability, AU-24118 was administered by intravenous (i.v.) and oral (p.o.) routes at 1 mg/kg and 30 mg/kg doses, respectively (n = 3). For the oral arm, AU-24118 was administered as a solution formulation in 10% PEG200, 50% of 20% D-α-Tocopherol polyethylene glycol 1000 succinate and 40% of 1% Tween-80 in water while AU-24118 was formulated in 2% DMA and 10% HPβCD in saline (qs) for the intravenous administration.
Concentrations of AU-24118 were determined in plasma samples using a nonvalidated (fit for purpose) LC–MS/MS method in positive Multiple Reaction Monitoring mode with transition pair of m/z: 633.11→344.00. Either Carbamazepine (with a transition pair of m/z: 237.07→194.10) or Telmisartan (with a transition pair of m/z: 515.16→276.00) were used as internal standards. Sample processing was carried out by protein precipitation followed by evaporation method. Compound concentrations were calculated using Analyst® software 1.7.2 with linear/quadratic regression algorithm (with 1/×2 weighting factor) over a quantification range of 1 ng/mL to 2,500 ng/mL with the low and high ends of this range defining the lower limit of quantitation and upper limit of quantitation, respectively.

[4] = Toxicity and maximum tolerated dose in tumor-free CB17 SCID mice; type: in vivo
Description: To evaluate the preclinical safety of AU-24118, we conducted extensive toxicity analyses with AU-24118 in mice. First, to establish the maximum tolerated dose, we implemented a dosage escalation experiment in CB17 SCID (severe combined immunodeficiency) tumor-free mice.
We further characterized the host organ (spleen, kidney, and liver) morphology and function upon AU-24118 treatment at the maximum tolerated dose (15 mg/kg) in CB17 SCID mice. […] Additionally, we evaluated liver and kidney function using a blood panel on a separate cohort of CB17 SCID mice that underwent 25 d treatment with AU-24118 at the maximum tolerated dose.
Organs (liver, spleen, and kidney) were harvested from mice and fixed in neutral buffered formalin (10%) and subsequently embedded in paraffin to generate tissue blocks. These blocks were then sectioned at a thickness of 4 µm and stained using Harris hematoxylin (Leica Surgipath) and alcoholic eosin-Y stain (Leica Surgipath). Staining was executed using the automated Leica autostainer-XL platform. Upon staining, the sections were subsequently analyzed by two pathologists on a brightfield microscope to determine morphology and architectural coherence. These pathological assessments were performed in a blinded manner. Detailed and comprehensive analysis of cellular and -subcellular level changes of organs were performed as previously described ([16]).

[5] = tested on: VCaP castration-resistant tumor model; experiment: CRPC-VCaP xenograft efficacy study; type: in vivo
Description: Six-week-old CB17 (male) SCID mice were obtained from the breeding colony at the U-M. For all studies, tumors were measured two or three times per week using digital calipers, and tumor volumes were calculated using the formula (π/6) (L × W2), where L is length and W is width of the tumor. At study endpoint, mice were killed, and tumors were extracted and weighed. […] Once tumors grew to a palpable size (~400 mm^3), the mice were physically castrated. Once those tumors regained their precastration size, mice were then randomized and treated with either 15 mg/kg AU-24118 or vehicle by oral gavage 3 d per week with or without enzalutamide (10 mg/kg) by oral gavage 5 d per week for 4 wk.
IHC was performed on 4 µm formalin-fixed, paraffin-embedded tissue sections using BRG1 (SMARCA4), AR, FOXA1, ERG and C-Myc. The IHC process was performed on the Ventana ULTRA automated slide staining system using the Omnimap and Ultraview Universal DAB detection kit. The antibody details are provided in SI Appendix, Table S1. The following commercial kits from Roche-Ventana Medical System were used: Discovery CC1 (Cat No. 950-500), Discovery CC2 (Cat No. 950-123), OptiView Universal DAB Detection Kit (Cat No. 760-700), and OmniMap Universal DAB Detection Kit (Cat No. 760-149).
The TUNEL and In Situ Cell Death Detection Kits (TMR Red #12156792910; Roche Applied Science) were used to examine apoptosis, following the manufacturer’s instructions. Briefly, fixed sections were permeabilized with Triton X-100 and then washed in phosphate-buffered saline. Labeling was carried out at 37 °C for 60 min by addition of a reaction buffer that contained enzymes. A Zeiss Axiolmager M1 microscope was used to obtain images.

[6] = tested on: SMARCA4, PBRM1 and SMARCA2 in 22Rv1-AUR-3 xenografts; experiment: 22Rv1-AUR-3 xenograft pharmacodynamics study; conditions: 5 d; AU-24118 15 mg/kg oral gavage three times per week; zosuquidar 40 mg/kg i.p.
Description: as §1
For the 22Rv1-AUR-3 model, bilateral subcutaneous dorsal flank tumors were established by injecting 1 × 10^6 cells suspended in a 1:1 mixture of serum-free medium and Matrigel (BD Biosciences). Once tumors reached an average volume of 100 mm^3, mice were randomized and treated with either 60 mg/kg AU-15330 by retro-orbital vein injection 3 times every other day and with or without 10 mg/kg, 20 mg/kg, or 40 mg/kg of zosuquidar by intraperitoneal injection daily for 5 d per week. […] Animals harboring tumors approaching that size were immediately killed. All in vivo studies were approved by the U-M IACUC.

[7] = mouse, iv, CD1 Mice, I.V. 1mg/kg
[8] = mouse, po, CD1 Mice, P.O. 30mg/kg
[9] = mouse, mice, oral, 10mg/kg, dose escalation (Fig. 1G)
[10] = mouse, mice, oral, 30mg/kg, dose escalation (Fig. 1G)
[11] = after 5 d of treatment, 15 mg/kg

Nc1nnc(-c2ccccc2O)cc1-c1ccc(N2CCC(N3CCC(c4ccc(OC5CCC(=O)NC5=O)cc4)CC3)CC2)cc1 (stereo not shown) [AU-24118]
IC50 [1]: 9.42 nM
degradation of SMARCA2 and PBRM1, immunoblot [2]: able to degrade SMARCA2 and PBRM1
degradation of SMARCA4, immunoblot [2]: unable to degrade SMARCA4
bioavailability ([3]; CD1, mouse, oral, mice, i.v. 1 mg/kg, p.o. 30 mg/kg, read-out: Oral bioavailability (%F)): 33.4%
AUC(0-inf) [3, 7]: 1680 ng·h/mL
AUC(0-t) [3, 7]: 1630 ng·h/mL
half-life ([3]; mouse, iv, CD1 Mice, I.V. 1mg/kg, read-out: Beta t1/2 (converted)): 4.76 h
clearance ([3]; mouse, iv, CD1 Mice, I.V. 1mg/kg, read-out: CI (Clearance)): 10 mL/min/kg
Cmax [3, 7]: 443 ng/mL
Vd ([3]; mouse, iv, CD1 Mice, I.V. 1mg/kg, read-out: Vdss): 3.3 L/kg
AUC(0-t) [3, 8]: 16300 ng·h/mL
Cmax [3, 8]: 1030 ng/mL
Tmax [3, 9]: 6 h
Cmax [3, 9]: 345 ng/mL
AUC(0-t) [3, 10]: 14700 ng·h/mL
Tmax [3, 10]: 3 h
Cmax [3, 10]: 1190 ng/mL
Tmax ([3]; mouse, mice, oral, 100mg/kg, dose escalation (Fig. 1G)): 4 h
H&E staining of spleen, kidney and liver ([4]; CB17 SCID mice, 15 mg/kg): no discernible toxicity in normal tissues
blood panel of liver and kidney function (ALT, AST, BUN, CREA) ([4]; CB17 SCID mice, 25 d treatment, 15 mg/kg): slight elevation in alanine transaminases
tolerability (body weight, morbidity) ([4]; CB17 SCID tumor-free mice, 20 mg/kg three times weekly): noticeable weight loss after the first week, culminating in morbidity or fatality by the second week
tolerability (body weight) ([4]; CB17 SCID tumor-free mice, up to 15 mg/kg three times weekly): well-tolerated responses
MTD ([4]; mouse, in vivo, oral, CB17 SCID mice, dosed three times weekly): 15 mg/kg
body weight changes ([5]; CRPC VCaP xenograft mice, throughout the treatments): no significant body weight changes
apoptosis in tumors (cleaved PARP, TUNEL) [5, 11]: induced apoptosis
downregulation of direct targets (SMARCA2, SMARCA4, PBRM1) and lineage proteins (AR, ERG, C-Myc, PSA) in tumors, Western blot [5, 11]: robust downregulation
tumor response ([5]; castrated CB17 SCID mice, enzalutamide 10 mg/kg oral gavage five times weekly, AU-24118 15 mg/kg oral gavage three times weekly): regression in every tumor; also recorded: regressed every tumor in the cohort
degradation of target proteins in tumors, immunoblot [6]: mild degradation of its target proteins

Source: publication PMC11009648, “Development of an orally bioavailable mSWI/SNF ATPase degrader and acquired mechanisms of resistance in prostate cancer” (Proceedings of the National Academy of Sciences of the …, 2024)
